The values below come from US20260207824A1, “GALLIUM-LOADED HYDROGELS FOR BONE TREATMENT” (NORTHEAST OHIO MEDICAL UNIVERSITY, priority 2022, published 2026).

In series [1] the test system is OC differentiation and function. The conditions noted are these: earlier studies; cited from earlier work.
The nature of series [2]: In-vivo retention by IVIS imaging with ICG marker. Details: species or system BALB/c mice. The procedure:
In-vivo retention studies were carried out in healthy BALB/c mice using indocyanine green (ICG) as the marker with monitoring via the in-vivo imaging system (IVIS) Lumina XRMS series III (PerkinElmer, USA). All animal studies were performed according to a protocol approved by the Institutional Animal Care and Use Committee of Northeast Ohio Medical University.
All treatments were administered by a single periosseous (intramuscular, bone adjacent) injection in the lower right hindlimb. The animals were observed via IVIS at a selected time point to obtain total radiant efficiency of the injection site with an excitation set at 780 nm and emission at 845 nm based on the earlier reported method. Okubo et al., International Journal of Pharmaceutics, 575: p. 118845(2020 ).

The test system of series [3] is RAW 264.7 cells. Nature of the series: Biocompatibility (MTT cell viability) of GaAcAc in pre-osteoclastic cells. The series is classed as cell-based, murine. The note with it: GaAcAc 10-50 μg/mL, 37° C., vs untreated control. The procedure: (§1) RAW 264.7 (pre-osteoclast) and MC3T3 (pre-osteoblast) cells were cultured and maintained in DMEM & AMEM supplemented with 10% FBS and 1% PenStrep in a humidified incubator at 37° C. and 5% CO2 conditions. RAW and MC 3 T3 cells, upon 70-80% confluency, were gently detached using a cell scraper and/or 0.25% v/v trypsin/EDTA. The detached cell suspension was collected and centrifuged at 1500 RPM for 5 minutes and seeded accordingly to the requirement for each experiment.
(§2) After the stipulated time of incubation, cell viability was measured by MTT assay using untreated control cells as a reference.

In series [4] the test system is murine hematopoietic stem cells (mHSCs). The experiment in a line: OC differentiation of murine hematopoietic stem cells with M-CSF and RANKL. In kind it is cell-based, C57BL/6 mice. The method, then: All mice were housed and maintained at Northeast Ohio Medical University according to the guidelines of the Institutional Animal Care and Use Committee. Bone marrow cells were flushed from the femora, and tibiae were extracted from euthanized C57BL/6 mice (male, 6-8 weeks) as described previously. Xing L. and B.F. Boyce, Methods Mol Biol, 1130: p. 307-313(2014). The flushed cells were incubated overnight to separate hematopoietic (in supernatant) and mesenchymal (adherent) stem cells. The supernatant was then collected and seeded at the required density based on the type of well plate used (96 well plate: 2×10^5 cells/well & 24 well plate: 1.5×10^6 cells per well-day 0) in culture media supplemented with 30 ng/ml of M-CSF. […] On day-6, fresh media supplemented with M-CSF & RANKL were added to the differentiating cells. On day-7, the plates were fixed and evaluated for TRAP activity and counted for the number of TRAP-stained multinucleated osteoclasts formed similarly as mentioned above.

The subject of series [5] is RAW 264.7 cells. Nature of the series: OC differentiation of RAW 264.7 cells with RANKL (TRAP activity, OC count, TRAP staining). The series is classed as cell-based, murine. The note with it: for TRAP activity: vs positive control (RANKL alone); for number of TRAP-stained OCs (OC count): vs positive control, p<0.0001. The procedure:
Pre-osteoclast (RAW 264.7) cells were differentiated by treating the cells with culture media supplemented with or without different concentration of F127 hydrogel (HG) leachates and 30 ng/ml RANKL. The cells were then assessed for TRAP activity and stained. (A) TRAP activity; (B) OC count. Only cells which have 3 or more nuclei and were TRAP stained, i.e., pink color were counted. Each data point represents Mean±SD; n=4 wells. *** p<0.0001, *p<0.01 vs RANKL.
RAW 264.7 (Pre-OC) cells were seeded at a density of 1.5×10^5 cells/cm^2 (day 0) in a 24-well bottom dish of an insert plate and incubated overnight for adherence. Subsequently, (day 1), cells were treated with growth media supplemented with 30 ng/ml of RANKL (positive control) alone or RANKL (30 ng/ml) together with various treatments-GaAcAc solution, MH, or GaMH. […] After the initial treatment and RANKL supplementation, cells in all treatment groups (except untreated control) received RANKL supplementation on day 3 to induce OC formation. On day 4, mature OCs were fixed at 4% paraformaldehyde for 10 minutes at room temperature and evaluated for the extent of OC differentiation based on tartrate-resistant acid phosphatase (TRAP) activity and stained with TRAP staining solution. TRAP (pink colored) stained and multinucleated (≥3 nuclei) cells according to earlier reported methods. Abdelmagid et al., J Biol Chem, 290(33): p. 20128-46 (2015).

The subject of series [6] is MC3T3 cells. Nature of the series: Biocompatibility (MTT cell viability) of GaAcAc in pre-osteoblastic cells. The series is classed as cell-based. The conditions noted are these: GaAcAc 10-50 μg/mL, 37° C., vs untreated control. The method, then:
as §1, §2

Series [7] can be described thus: In-vivo toxicity of GaAcAc solution based on weight of animals. The note with it: 100 μL of 100 μg/mL subcutaneously 1-3×/week for 4 weeks. The procedure: Groups included in the study are: control: No injections; 1×/week: 100 μL of 100 μg/mL Ga solution injected subcutaneously in the back once per week for 4 weeks; 2×/week: 100 μL of 100 μg/mL Ga solution injected subcutaneously in the back twice per week for 4 weeks; 3×/week: 100 μL of 100 μg/mL Ga solution injected subcutaneously in the back three times per week for 4 weeks.

Series [8] relates to Cathepsin K (CTSK). Nature of the series: CTSK ELISA of cell media during bone resorption, RAW 264.7. The series is classed as cell-based, mouse. Also noted: dose or concentration left out as unconfirmed. The procedure:
Cathepsin K (CTSK) assay was conducted during bone resorption studies (as described above) as a useful tool to assess the effects of GaMH treatment on OC function. Supernatant from treated/untreated wells after the third treatment of differentiation factors was collected and spun down at 2000g for 10 minutes at 4° C. The supernatant was then assessed for its CTSK concentration using the mouse CTSK/Cathepsin K Sandwich ELISA kit as per manufacture protocol.
On the technique in general: In an ELISA, binding on a coated surface is turned into a signal by an enzyme label.

Series [9] concerns cFos, NFAT2, TRAF6, TRAP. Nature of the series: Western blotting of OC differentiation markers. In kind it is cell-based, murine. The note with it: vs positive control (RANKL). The method, then: To investigate the effects on OC differentiation, Pre-OC (RAW 264.7) cells were seeded, treated, and differentiated with various treatments as described under OC differentiation. Afterward, cells were lysed with 100 μL of RIPA buffer containing protease inhibitor. The lysates were collected and centrifuged at 1500 RPM for 10 minutes and analyzed for their protein content via the BCA protein assay kit. Protein samples (20 μg) were separated via 10% SDS-page gel and transferred onto a polyvinylidene fluoride (PVDF) membrane. The membrane was blocked with a respective blocking buffer, either 5% BSA or non-fat dry milk, for an hour. After blocking, the membranes were washed with 1× TBST buffer and later probed with primary antibodies; NFAT2, TRAP, TRAF6 and cFos with GAPDH as a loading control, diluted with 2% respective blocking buffer overnight at 4° C., followed by a 1-hour incubation with secondary HRP conjugated anti-rabbit IgG secondary antibody. The blots were visualized using the Fluorchem system.
On the technique in general: A western blot detects proteins with antibodies after separation by electrophoresis.

For series [10], the system named is OCs from RAW 264.7 cells. Nature of the series: Pit resorption assay on bovine cortical bone slices, OCs from RAW 264.7. In kind it is cell-based, murine. The conditions noted are these: vs positive control. The method, then: To assess the effects of various treatments on OC function, we assessed the possible anti-resorptive effect via pit resorption assay. Briefly, bovine cortical bone slices were cleaned and sterilized as per the manufacturer's instructions and placed in a 24-well plate. The study was carried out using OC derived from either RAW 264.7 differentiation or murine hematopoietic stem cells (mHSCs).
Using OCs from RAW 264.7 cells, the detached pre-OC cells were seeded on top of the sanitized bovine cortical bone slice using 1.5×10^5 cells/cm^2 supplemented with a complete growth medium on day 0. […] Subsequent treatment with complete media containing RANKL occurred every two days for seven days. After seven days, the wells were aspirated and processed for further analysis.
To assess the osteoclastic resorptive effect of the wells with or without treatment, the bone slices were fixed with 10% formaldehyde and initially TRAP-stained, as reported. The bone slices were thoroughly cleaned with cotton swab and strained with 0.5% toluidine blue stain and incubated for three minutes at room temperature. The slices were then washed with water five times and patted dry. The pits formed on the bone slices, depicting OC function, were evaluated.

The structures appear in SMILES notation.

On to `O=[N+]([O-])[O-].O=[N+]([O-])[O-].O=[N+]([O-])[O-].[Ga+3]` [GaN, gallium nitrate], for which the “OC differentiation and function” value in [1] was “effectively inhibit OC differentiation and function without affecting OBs”.

Regarding `CC1(C)C(/C=C/C=C/C=C/C=C2\N(CCCCS(=O)(=O)O)c3ccc4ccccc4c3C2(C)C)=[N+](CCCCS(=O)(=O)[O-])c2ccc3ccccc3c21` [ICG, Indocyanine green], the “fluorescent intensity at injection site” value in series [2] (8 hrs post-injection, single periosseous injection) is “diminished”; in series [2] (24 hrs post injection) it was “completely disappeared”.

As for `CC(=O)/C=C(/C)[O][Ga]([O]/C(C)=C\C(C)=O)[O]/C(C)=C\C(C)=O` [GaAcAc, gallium acetylacetonate], the “viability of pre-OC cells” value in series [3] is on record as “did not affect the viability”. For the same compound, the “GaAcAc concentrations with significant inhibition of OC differentiation and OC count” value in [4] (dose-dependent, p<0.0001) is given as “greater than 25 μg/mL”. Also, the “OC differentiation and OC counts” value in [4] (mHSCs) is “suppressed OC differentiation and OC counts”. Moreover, the “TRAP staining (representative images)” value in series [5] (10 μg/mL) was “decrease in TRAP-stained cells”; in series [5] (50 μg/mL), “complete absence of multinucleated and TRAP-stained cells”. For the same compound, the TRAP activity entry in [5] (10 μg/mL) and in [5] (50 μg/mL) was “remarkable decrease in TRAP activity” each time. For the same compound, the “number of TRAP-stained OCs (OC count)” value in [5] (10 μg/mL) and in series [5] (50 μg/mL) was “significant reduction in the number of OCs” each time. Moreover, in [6], the “viability of pre-OB cells” value is recorded as “did not affect the viability”. Also, the “toxicity based on weight of animals” value in [7] was “did not show detectable toxicity”. Also, in series [8] (50 GaAcAc solution), the “reduction in level of CTSK” value worked out at 4 times reduction. The “reduction in CTSK concentration” value in series [8] (GaAcAc solution (10)) stood at 1.4 times reduction. Besides, the “expression levels of OC differentiation markers” value is listed as “slight decrease in expression levels” in series [9] (10 μg/mL GaAcAc) and “downregulation of expression levels” in series [9] (50 μg/mL GaAcAc). In addition, the “resorption pits on bone slices” value in series [10] (10 μg/mL GaAcAc) is reported as “slightly reduced”. Also, the “number of pits formed” value in series [10] (50 μg/mL) is “significantly decrease the number of pits formed”.
